In ChEMBL document CHEMBL1151373, “Antitumor agents. 49 tricin, kaempferol-3-O-beta-D-glucopyranoside and (+)-nortrachelogenin, antileukemic principles from Wikstroemia indica” (1981):

Assays:
Type in all cases: functional
[1] = system: P388; test: Cytotoxicity against mouse P388 cells xenografted in BDF1 mouse at 6 mg/kg relative to control
[2] = system: P388; test: Cytotoxicity against mouse P388 cells xenografted in BDF1 mouse at 12.5 mg/kg relative to control
[3] = Growth inhibition of mouse EAC cells xenografted in CF1 mouse at 3 mg/kg/day, ip; settings: Ehrlich, route intraperitoneal
[4] = system: P388; test: Cytotoxicity against mouse P388 cells xenografted in BDF1 mouse at 8 mg/kg relative to control
[5] = system: P388; test: Cytotoxicity against mouse P388 cells xenografted in BDF1 mouse at 16 mg/kg relative to control
[6] = system: P388; test: Cytotoxicity against mouse P388 cells xenografted in CDF1 mouse at 10 mg/kg relative to control
[7] = system: P388; test: Cytotoxicity against mouse P388 cells xenografted in BDF1 mouse at 4 mg/kg relative to control
[8] = system: P388; test: Cytotoxicity against mouse P388 cells xenografted in CDF1 mouse at 2 mg/kg relative to control
[9] = system: P388; test: Cytotoxicity against mouse P388 cells xenografted in CDF1 mouse at 1 mg/kg relative to control
[10] = system: P388; test: Cytotoxicity against mouse P388 cells xenografted in CDF1 mouse at 16 mg/kg relative to control
[11] = system: P388; test: Cytotoxicity against mouse P388 cells xenografted in CDF1 mouse at 4 mg/kg relative to control

Structure (SMILES): O=c1c(O[C@@H]2O[C@H](CO)[C@@H](O)[C@H](O)[C@H]2O)c(-c2ccc(O)cc2)oc2cc(O)cc(O)c12 [ASTRAGALIN]
- T/C [1]: 122%
- T/C [2]: 130%

Structure (SMILES): COc1cc2cc(Oc3ccc4ccc(=O)oc4c3)c(=O)oc2cc1O [DAPHNORETIN]
- inhibition in vivo at 3 mg/kg/day [3]: 97%

Structure (SMILES): COc1cc(-c2cc(=O)c3c(O)cc(O)cc3o2)cc(OC)c1O [TRICIN]
- T/C [1]: 133%
- T/C [2]: 174%

Structure (SMILES): COc1cc(C[C@@H]2COC(=O)[C@@]2(O)Cc2ccc(O)c(OC)c2)ccc1O [WIKSTROMOL]
- T/C [4]: 130%
- T/C [5]: 130%
- T/C [6]: 146%
- T/C [7]: 122%
- T/C [8]: 141%
- T/C [9]: 130%
- T/C [10]: 154%
- T/C [11]: 137%
